Here are results for four compounds from US4902799A, “Bicyclic alkoxy- and alkylthio-substituted aminoalcohols” (Maggioni-Winthrop S.p.A., priority 1985, dated 1990).

Series [1] has as its system Normolipemic rats. Put plainly: Hypolipemic activity in normolipemic rats. It counts as in vivo, rat (Sprague Dawley Nos male rats).
Series [2] has as its system Normolipemic rats. The note with it: "as known"; cited from earlier work.
Another series has as its system platelet aggregation. Briefly: Collagen-induced platelet aggregation ex vivo. It counts as in vivo, rat. To be noted: 0.15 mM/kg oral, blood 1 hr after treatment, collagen 2-4 mcg/ml.
The test system of series [3] is male mice. Put plainly: Anti-hypoxic activity (gasping time after decapitation). It counts as in vivo. The note with it: Mus musculus, po, read-out: Gasping time, % diff. from control.
The next series relates to toxic adrenaline doses. Put plainly: animal or person. The format is in vivo, mouse (male mice CrI:CD 1(CR) BR). The note with it: Mus musculus, po, 24 h, read-out: PD50 (50% protective dose).
In series [4] the test system is male mice. To be noted: mouse, in vivo, po.
In series [5] the test system is SH rats (spontaneously hypertensive rats). Put plainly: Anti-hypertensive activity in spontaneously hypertensive rats, tail artery plethysmography. The note with it: SHR. The format is in vivo, rat.
Protocol: The anti-hypertensive activity was tested on groups of 5 SH rats (spontaneously hypertensive rats) weighing 200±10 g, fasting for 18 hrs and treated orally with the invention compounds suspended in 2.5% gum arabic.
Changes in blood pressure (mm Hg) before (T=0) and after treatment (2, 4 and 6 hrs) were measured according to the method of tail artery plethysmography reported in "Spontaneously hypertensive rats (SHR): Guidlines for breeding, care and use", SHR Conference, 1976, page 11.
The arterial pressure before the treatment was 210±10 mmHg.
For series [6], the target named is T1, alpha2-adrenergic receptors (Rattus norvegicus, UniProt P22909).
T1 construct: from tissue; host or cells: rat brain membranes
T1 sequence (P22909 1-465): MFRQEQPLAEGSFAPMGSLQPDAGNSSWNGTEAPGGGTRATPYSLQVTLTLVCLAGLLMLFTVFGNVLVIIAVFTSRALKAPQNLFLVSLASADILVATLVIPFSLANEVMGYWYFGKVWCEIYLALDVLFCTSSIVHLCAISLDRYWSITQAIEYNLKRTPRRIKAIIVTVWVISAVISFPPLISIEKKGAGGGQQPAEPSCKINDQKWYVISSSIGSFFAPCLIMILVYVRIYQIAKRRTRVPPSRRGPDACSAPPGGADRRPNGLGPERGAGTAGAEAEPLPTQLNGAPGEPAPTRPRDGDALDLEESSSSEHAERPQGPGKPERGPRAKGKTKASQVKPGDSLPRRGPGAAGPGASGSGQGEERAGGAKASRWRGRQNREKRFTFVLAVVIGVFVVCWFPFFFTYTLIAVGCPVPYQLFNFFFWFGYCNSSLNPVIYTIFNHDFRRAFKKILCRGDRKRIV
To be noted: (a) Qian et al. 1983 for Tibalosine; (b) Van Zwieten et al. 1985 for Urapidil; cited from earlier work.

Series [7] deals with alpha1-adrenergic receptors. To be noted: (a) Qian et al. 1983 for Tibalosine; (b) Van Zwieten et al. 1985 for Urapidil; cited from earlier work.

For the compound `CCOC(=O)C(C)(C)Oc1ccc(Cl)cc1` [Clofibrate, reference compound], in the series with Normolipemic rats [1] (0.82 mM/kg/p.o. × 4 days), the “CHOL, % different from control” value was -15.0%; the “CHOL-HDL, % different from control” value is 0%; the “Liver Weight, % different from control” value is recorded as “+19.5%”; the “TG, % different from control” value is -40.0%. The “liver increase (in words)” value in the series with Normolipemic rats [2] is “significative liver increase”.

Consider `COc1ccc2cc(C(O)C(C)N3CCN(c4ccccc4)CC3)ccc2c1` (stereo not shown) [MG 38088, 2-(4-Phenyl-1-piperazinyl)-1-(6-methoxy-2-naphthyl)-propanol], for which, in the series on platelet aggregation, the “% Inhibition, Aggregation rate” value came to 75.1% and the “% Inhibition, Maximum aggregation” value came out at 68.6%. For the same compound, in the series with male mice [3], the change in vivo at 100 mg/kg was 46.8%. Further, the ED50 in the series on toxic adrenaline doses came out at 13.5 mg/kg. Also, in the series on Normolipemic rats [1] (0.185 mM/kg/p.o. × 4 days), the “CHOL, % different from control” value was -35.1%; the “CHOL-HDL, % different from control” value is -9.1%; the “Liver Weight, % different from control” value was 0%; the “TG, % different from control” value is -70.5%. For the same compound, in the series with Normolipemic rats [1] (0.37 mM/kg/p.o. × 4 days), the “CHOL, % different from control” value is listed as -41.3%; the “CHOL-HDL, % different from control” value is on record as “+5.4%”; the “Liver Weight, % different from control” value is “+3.4%”; the “TG, % different from control” value is on record as -68.5%. Further, in the series with male mice [4], the LD50 result was “higher than 1000 mg/kg”.

With `CC(NCCCCc1ccccc1)C(O)c1ccc2c(c1)CCS2` (stereo not shown) [Tibalosine], the figures for the “Max. changes in systolic pressure” value in series [5] (1 mg/kg p.o.), in series [5] (5 mg/kg p.o.) and in [5] (15 mg/kg p.o.) were ~ 0 mmHg, -13.2 mmHg and -67 mmHg, respectively. In addition, the IC50 (commonly the midpoint of a concentration-inhibition curve) in [6] was 1000 µM; in [7], 0.4 µM.

On to `COc1ccccc1N1CCN(CCCNc2cc(=O)n(C)c(=O)n2C)CC1` [Urapidil], for which the “Max. changes in systolic pressure” value in series [5] (1 mg/kg p.o.) was -16 mmHg; in [5] (5 mg/kg p.o.) it was -47 mmHg; in series [5] (15 mg/kg p.o.) it was -72.4 mmHg. Also, the results for the IC50 in [6] and in series [7] were 14 µM and 0.8 µM, respectively.
